The values below come from patent US5268003A (priority 1992, dated 1993).

SMILES strings stand for the structures.

For data set [1] the following is noted: heavy-duty liquid detergent, pH 4.5.
The nature of data set [2]: Bleaching of ink stained cotton in Terg-o-tometer, change in B-axis of Hunter color scale. The conditions noted are these: pH 9, 40° C., 10 ppm A.O., P-Surf base (1.5 g/l), 15 minutes; corrected for detergent control. The protocol: (§1) The bleaching performance of the peracids was evaluated against common stains such as tea (BC-1) and ink. Typically the cotton test pieces (3"×4") were stained with the appropriate stain and washed in a Terg-o-tometer for 15 minutes at 40° C. in a 500 mL aqueous wash solution. Dosage of the peracid was 10 ppm active oxygen.
Ink stain bleaching was measured as ΔB where the quantity ΔB is the change in the B-axis of the Hunter color scale. The ink stain is initially blue and loses color with bleaching thereby increasing the value of ΔB. Recorded ΔΔB values are ΔB values corrected for the cleaning accomplished by the detergent control.
(§2) Bleaching Results at 40° C., 10 ppm A.O., P-Surf base (1.5 g

The nature of data set [3]: Bleaching of tea (BC-1) stained cotton in Terg-o-tometer, reflectance change. The settings on record: 10 ppm A.O.; for BC-1 ΔΔR pH 8: pH 8, 40° C.; for BC-1 ΔΔR pH 8 / BC-1 ΔΔR pH 9 / BC-1 ΔΔR pH 10: P-Surf base (1.5 g/l), 15 minutes, average of duplicates; for BC-1 ΔΔR pH 9: pH 9, 40° C.; for BC-1 ΔΔR pH 10: pH 10, 40° C. The procedure:
as §1
Stain bleaching was measured reflectometrically using a Colorgard System/05 Reflectometer. Bleaching was indicated by an increase in reflectance, reported as ΔΔR. In general a ΔΔR of one unit is perceivable in a paired comparison while ΔΔR of two units is perceivable monadically. In reporting the reflectance change, the change in reflectance caused by general detergency has been accounted for. Thus ΔΔR can actually be expressed as:
ΔΔR=ΔR peracid+detergent-ΔR detergent
where ΔR is the reflectance difference of the stained fabric after and before washing.
BC-1 experiments were run in duplicate and the value shown is an average. In order to ensure that the solids were as finely dispersed as possible, one of the BC-1 experiments of each pair was usually conducted by predissolving the peracid in 1 ml of DMF; if this value was within 1 unit of the experiment using finely ground peracid, the values were averaged.
as §2

On to `O=C(CCCCCN1C(=O)c2ccccc2C1=O)OO` [PAP, N-phthaloylamino peroxycaproic acid, reference compound], for which, in data set [1], the “t1/2 at 40° C.” value came to 3 days.
Turning to `O=C(N[C@H]1CC[C@H](NC(=O)c2ccc(C(=O)OO)cc2)CC1)c1ccc(C(=O)OO)cc1` [PCBHEX, N,N'-Di(4-percarboxybenzoyl)-1,4-diaminocyclohexane], in data set [2], the “INK ΔΔB pH 9” value amounted to 4.2. In data set [3], the “BC-1 ΔΔR pH 8” value is listed as 0.9, the “BC-1 ΔΔR pH 9” value is given as 2.1 and the “BC-1 ΔΔR pH 10” value is 3.1.
Consider `O=C(Nc1ccccc1NC(=O)c1ccc(C(=O)OO)cc1)c1ccc(C(=O)OO)cc1` [1,2-PCBPD, N,N'-Di(4-percarboxybenzoyl)-1,2-phenylenediamine], for which the “t1/2 at 40° C.” value in data set [1] is given as 33 days. For the same compound, the “INK ΔΔB pH 9” value in data set [2] was determined as 24.9. In data set [3], the “BC-1 ΔΔR pH 8” value came to 4.4, the “BC-1 ΔΔR pH 9” value is listed as 4.1 and the “BC-1 ΔΔR pH 10” value came to 3.9. In addition, the “BC-1 ΔΔR pH 8 (DMF value in parenthesis)” value in data set [3] (pH 8, peracid predissolved in 1 ml of DMF, 40° C., P-Surf base) is given as 8.1. Further, in data set [3] (pH 9, peracid predissolved in 1 ml of DMF, 40° C., P-Surf base), the “BC-1 ΔΔR pH 9 (DMF value in parenthesis)” value turned out to be 6.5.
Turning to `O=C(NCCNC(=O)c1ccc(C(=O)OO)cc1)c1ccc(C(=O)OO)cc1` [PCBED, N,N'-Di(4-Percarboxybenzoyl)ethylenediamine], the “INK ΔΔB pH 9” value in data set [2] is given as 19.1. Moreover, in data set [3], the “BC-1 ΔΔR pH 8” value came out at 10.6, the “BC-1 ΔΔR pH 9” value was determined as 9.0 and the “BC-1 ΔΔR pH 10” value is reported as 5.9.
On to `O=C(Nc1ccc(C(=O)OO)cc1)c1ccc(C(=O)Nc2ccc(C(=O)OO)cc2)cc1` [DPCAT, N,N'-Di(4-Percarboxyaniline)terephthalate], for which the “t1/2 at 40° C.” value in data set [1] amounted to 65 days. In addition, the “INK ΔΔB pH 9” value in data set [2] is reported as 3.1. In data set [3], the “BC-1 ΔΔR pH 8” value is given as 1.6, the “BC-1 ΔΔR pH 9” value was determined as 1.5 and the “BC-1 ΔΔR pH 10” value was determined as 2.3.
In the case of `O=C(NCCCCNC(=O)c1ccc(C(=O)OO)cc1)c1ccc(C(=O)OO)cc1` [PCBBD, N,N'-Di(4-percarboxybenzoyl)-1,4-butanediamine], in data set [1], the “t1/2 at 40° C.” value worked out at 15 days. Besides, the “INK ΔΔB pH 9” value in data set [2] is 28.9. In data set [3], the “BC-1 ΔΔR pH 8” value is given as 9.5, the “BC-1 ΔΔR pH 9” value came out at 9.4 and the “BC-1 ΔΔR pH 10” value was 6.0.
`O=C(OO)c1ccc(C(=O)N2CCN(C(=O)c3ccc(C(=O)OO)cc3)CC2)cc1` [PCBPIP, N,N'-Di(4-percarboxybenzoyl)piperazine]: in data set [1], the “t1/2 at 40° C.” value turned out to be 79 days. The “INK ΔΔB pH 9” value in data set [2] stood at 9.7. In data set [3], the “BC-1 ΔΔR pH 8” value was determined as 3.0, the “BC-1 ΔΔR pH 9” value is 2.9 and the “BC-1 ΔΔR pH 10” value is recorded as 3.1.
As for `O=C(CCC(=O)Nc1ccc(C(=O)OO)cc1)Nc1ccc(C(=O)OO)cc1` [SDPCA, N,N'-Succinoyl-di(4-percarboxy)aniline], the “t1/2 at 40° C.” value in data set [1] came to 43 days. Further, the “INK ΔΔB pH 9” value in data set [2] is given as 16.8. Further, in data set [3], the “BC-1 ΔΔR pH 8” value is 2.7, the “BC-1 ΔΔR pH 9” value is reported as 3.3 and the “BC-1 ΔΔR pH 10” value stood at 5.0.
For `O=C(CCCCC(=O)OO)Nc1ccc(NC(=O)CCCCC(=O)OO)cc1` [DPAPD, N,N'-Di(percarboxyadipoyl)phenylenediamine], in that order: 32 days, 8.0, 7.1, 6.7 and 4.0.
